Source: publication PMC10866072, “Design, synthesis, molecular modelling and biological evaluation of novel 6-amino-5-cyano-2-thiopyrimidine derivatives as potent anticancer agents against leukemia and apoptotic inducers” (Journal of Enzyme Inhibition and Medicinal Chemistry, 2024)

How the values were obtained:
[1] = test system: CCRF-CEM; assay type: cell-based; details: one dose 10^-5 M, 48 h
[2] = test system: HL-60(TB); assay type: cell-based; details: one dose 10^-5 M, 48 h
[3] = test system: K-562; assay type: cell-based; details: 48 h
[4] = test system: MOLT-4; assay type: cell-based; details: one dose 10^-5 M, 48 h
[5] = test system: RPMI-8226; assay type: cell-based; details: one dose 10^-5 M, 48 h
[6] = test system: SR; assay type: cell-based; details: one dose 10^-5 M, 48 h
[7] = test system: A549/ATCC; assay type: cell-based; details: one dose 10^-5 M, 48 h
[8] = test system: EKVX; assay type: cell-based; details: one dose 10^-5 M, 48 h
[9] = test system: HOP-62; assay type: cell-based; details: one dose 10^-5 M, 48 h
[10] = test system: HOP-92; assay type: cell-based; details: one dose 10^-5 M, 48 h
[11] = test system: NCI-H226; assay type: cell-based; details: one dose 10^-5 M, 48 h
[12] = test system: NCI-H23; assay type: cell-based; details: one dose 10^-5 M, 48 h
[13] = test system: NCI-H460; assay type: cell-based; details: one dose 10^-5 M, 48 h
[14] = test system: NCI-H522; assay type: cell-based; details: one dose 10^-5 M, 48 h
[15] = test system: COLO 205; assay type: cell-based; details: one dose 10^-5 M, 48 h
[16] = test system: HCC-2998; assay type: cell-based; details: one dose 10^-5 M, 48 h
[17] = test system: HCT-116; assay type: cell-based; details: one dose 10^-5 M, 48 h
[18] = test system: HCT-15; assay type: cell-based; details: one dose 10^-5 M, 48 h
[19] = test system: HT29; assay type: cell-based; details: 48 h
[20] = test system: KM12; assay type: cell-based; details: one dose 10^-5 M, 48 h
[21] = test system: SW-620; assay type: cell-based; details: one dose 10^-5 M, 48 h
[22] = test system: SF-268; assay type: cell-based; details: one dose 10^-5 M, 48 h
[23] = test system: SF-295; assay type: cell-based; details: one dose 10^-5 M, 48 h
[24] = test system: SF-539; assay type: cell-based; details: one dose 10^-5 M, 48 h
[25] = test system: SNB-19; assay type: cell-based; details: one dose 10^-5 M, 48 h
[26] = test system: U251; assay type: cell-based; details: 48 h
[27] = test system: LOX IMVI; assay type: cell-based; details: one dose 10^-5 M, 48 h
[28] = test system: MALME-3M; assay type: cell-based; details: one dose 10^-5 M, 48 h
[29] = test system: M14; assay type: cell-based; details: one dose 10^-5 M, 48 h
[30] = test system: MDA-MB-435; assay type: cell-based; details: one dose 10^-5 M, 48 h
[31] = test system: SK-MEL-2; assay type: cell-based; details: one dose 10^-5 M, 48 h
[32] = test system: SK-MEL-28; assay type: cell-based; details: one dose 10^-5 M, 48 h
[33] = test system: SK-MEL-5; assay type: cell-based; details: one dose 10^-5 M, 48 h
[34] = test system: UACC-257; assay type: cell-based; details: one dose 10^-5 M, 48 h
[35] = test system: UACC-62; assay type: cell-based; details: one dose 10^-5 M, 48 h
[36] = test system: IGROV1; assay type: cell-based; details: 48 h
[37] = test system: OVCAR-3; assay type: cell-based; details: one dose 10^-5 M, 48 h
[38] = test system: OVCAR-4; assay type: cell-based; details: one dose 10^-5 M, 48 h
[39] = test system: OVCAR-5; assay type: cell-based; details: one dose 10^-5 M, 48 h
[40] = test system: OVCAR-8; assay type: cell-based; details: one dose 10^-5 M, 48 h
[41] = test system: NCI/ADR-RES; assay type: cell-based; details: one dose 10^-5 M, 48 h
[42] = test system: SK-OV-3; assay type: cell-based; details: one dose 10^-5 M, 48 h
[43] = test system: 786-0; assay type: cell-based; details: one dose 10^-5 M, 48 h
[44] = test system: A498; assay type: cell-based; details: one dose 10^-5 M, 48 h
[45] = test system: ACHN; assay type: cell-based; details: one dose 10^-5 M, 48 h
[46] = test system: CAKI-1; assay type: cell-based; details: one dose 10^-5 M, 48 h
[47] = test system: RXF 393; assay type: cell-based; details: one dose 10^-5 M, 48 h
[48] = test system: SN12C; assay type: cell-based, human; details: one dose 10^-5 M, 48 h
[49] = test system: TK-10; assay type: cell-based; details: one dose 10^-5 M, 48 h
[50] = test system: UO-31; assay type: cell-based; details: one dose 10^-5 M, 48 h
[51] = test system: PC-3; assay type: cell-based; details: one dose 10^-5 M, 48 h
[52] = test system: DU-145; assay type: cell-based; details: one dose 10^-5 M, 48 h
[53] = test system: MCF7; assay type: cell-based; details: one dose 10^-5 M, 48 h
[54] = test system: MDA-MB-231/ATCC; assay type: cell-based; details: one dose 10^-5 M, 48 h
[55] = test system: HS 578T; assay type: cell-based; details: one dose 10^-5 M, 48 h, HS 578T
[56] = test system: BT-549; assay type: cell-based; details: one dose 10^-5 M, 48 h
[57] = test system: T-47D; assay type: cell-based; details: one dose 10^-5 M, 48 h
[58] = test system: MDA-MB-468; assay type: cell-based; details: one dose 10^-5 M, 48 h
[59] = test system: full NCI 60 cell lines panel; details: for activity on all 60 cancer cell lines tested (in words): one dose
[60] = Homo sapiens, read-out: % growth

3-Amino-4–(2,4-dichlorophenyl)-1H-pyrazolo[3,4-d] pyrimidine-6-thiol [Compound 3c]
% growth [1]: 94.56%
% growth [2]: 89.08%
% growth ([3]; one dose 10^-5 M): 105.30%
% growth [4]: 90.06%
% growth [5]: 108.63%
% growth [6]: 97.30%
% growth [7]: 104.45%
% growth [8]: 115.88%
% growth [9]: 92.49%
% growth [10]: 76.20%
% growth [11]: 106.10%
% growth [12]: 103.34%
% growth [13]: 115.81%
% growth [14]: 95.34%
% growth [15]: 120.01%
% growth [16]: 103.06%
% growth [17]: 112.94%
% growth [18]: 111.27%
% growth ([19]; one dose 10^-5 M): 110.65%
% growth [20]: 104.75%
% growth [21]: 106.47%
% growth [22]: 108.35%
% growth [23]: 94.52%
% growth [24]: 94.60%
% growth [25]: 93.39%
% growth ([26]; one dose 10^-5 M): 103.99%
% growth [27]: 106.21%
% growth [28]: 92.32%
% growth [29]: 106.66%
% growth [30]: 110.71%
% growth [31]: 108.60%
% growth [32]: 115.84%
% growth [33]: 108.42%
% growth [34]: 107.51%
% growth [35]: 93.81%
% growth ([36]; one dose 10^-5 M): 105.59%
% growth [37]: 109.08%
% growth [38]: 105.05%
% growth [39]: 108.30%
% growth [40]: 109.69%
% growth [41]: 114.09%
% growth [42]: 86.72%
% growth [43]: 100.98%
% growth [44]: 125.09%
% growth [45]: 106.88%
% growth [46]: 96.86%
% growth [47]: 114.73%
% growth [48]: 105.03%
% growth [49]: 146.75%
% growth [50]: 85.75%
% growth [51]: 96.81%
% growth [52]: 119.84%
% growth [53]: 95.64%
% growth [54]: 94.87%
% growth [55]: 100.24%
% growth [56]: 100.27%
% growth [57]: 92.59%
% growth [58]: 110.26%
activity on all 60 cancer cell lines tested (in words) [59]: weak activity
Mean % growth ([59]; one dose 10^-5 M, 48 h, mean over all cell lines): 104.17%

CN(C)c1ccc(-c2nc(S)nc(N)c2-c2ncn[nH]2)cc1 [Compound 5a, 4-Aamino-6-[4-(dimethylamino)phenyl]-5-(1H-1,2,4-triazol-5-yl)pyrimidine-2-thiol]
% cell growth at 10 µM ([1]; Homo sapiens): 103%
% growth at 10 µM ([2]; Homo sapiens): 84.4%
% growth at 10 µM ([3]; Homo sapiens, K562, one dose 10^-5 M): 89.8%
activity at 10 µM [4, 60]: 100%
% growth at 10 µM ([5]; Homo sapiens): 109%
percent cell growth at 10 µM ([6]; Homo sapiens): 85.7%
% growth at 10 µM ([7]; Homo sapiens): 108%
% cell growth at 10 µM ([8]; Homo sapiens): 121%
% growth at 10 µM ([9]; Homo sapiens): 103%
% growth at 10 µM ([10]; Homo sapiens): 100%
% growth at 10 µM ([11]; Homo sapiens): 110%
activity at 10 µM [12, 60]: 108%
activity at 10 µM [13, 60]: 111%
% growth at 10 µM ([14]; Homo sapiens): 101%
% growth at 10 µM ([15]; Homo sapiens): 116%
% growth at 10 µM ([16]; Homo sapiens): 112%
activity at 10 µM [17, 60]: 102%
activity at 10 µM [18, 60]: 116%
% growth at 10 µM ([19]; Homo sapiens, HT-29, one dose 10^-5 M): 111%
% growth at 10 µM ([20]; Homo sapiens): 105%
% growth at 10 µM ([21]; Homo sapiens): 106%
activity at 10 µM [22, 60]: 107%
% cell growth at 10 µM ([23]; Homo sapiens): 104%
% growth at 10 µM ([24]; Homo sapiens): 108%
activity at 10 µM [25, 60]: 102%
% growth at 10 µM ([26]; Homo sapiens, U-251, one dose 10^-5 M): 111%
activity at 10 µM [27, 60]: 109%
% growth at 10 µM ([28]; Homo sapiens): 96.7%
% growth at 10 µM ([29]; Homo sapiens): 105%
activity at 10 µM [30, 60]: 113%
% growth at 10 µM ([31]; Homo sapiens): 116%
% cell growth at 10 µM ([32]; Homo sapiens): 119%
activity at 10 µM [33, 60]: 108%
percent cell growth at 10 µM ([34]; Homo sapiens): 113%
% growth at 10 µM ([35]; Homo sapiens): 102%
activity at 10 µM ([36]; Homo sapiens, IGROV-1, one dose 10^-5 M, read-out: % growth): 109%
% growth at 10 µM ([37]; Homo sapiens): 111%
% growth at 10 µM ([38]; Homo sapiens): 115%
percent cell growth at 10 µM ([39]; Homo sapiens): 120%
% growth of cells at 10 µM ([40]; Homo sapiens): 113%
cell growth percent at 10 µM ([41]; Homo sapiens): 115%
% growth at 10 µM ([42]; Homo sapiens): 103%
% growth at 10 µM ([43]; Homo sapiens): 96.3%
% growth at 10 µM ([44]; Homo sapiens): 131%
% growth at 10 µM ([45]; Homo sapiens): 119%
% growth at 10 µM ([46]; Homo sapiens, CAKI-1, 48 h): 89.7%
activity at 10 µM ([47]; Homo sapiens, RXF 393, 48 h, read-out: % growth): 113%
% growth at 10 µM ([48]; Homo sapiens): 106%
% cell growth at 10 µM ([49]; Homo sapiens): 117%
% cell growth at 10 µM ([50]; Homo sapiens, UO-31, 48 h): 93.9%
percent cell growth at 10 µM ([51]; Homo sapiens): 102%
% growth at 10 µM ([52]; Homo sapiens): 115%
activity at 10 µM [53, 60]: 96.6%
% growth at 10 µM ([54]; Homo sapiens): 107%
activity at 10 µM [55, 60]: 113%
% cell growth at 10 µM ([56]; Homo sapiens): 98.1%
activity at 10 µM ([57]; Homo sapiens, T47D, read-out: % growth): 109%
percent cell growth at 10 µM ([58]; Homo sapiens): 110%
activity at 10 µM ([59]; Homo sapiens, 60 cell, 48 h, read-out: Mean % growth): 107%
activity on all 60 cancer cell lines tested (in words) [59]: weak activity
